From US9856216B2, “Compounds as TNIK, IKKε and TBK1 inhibitors and pharmaceutical composition comprising same” (GREEN CROSS CORPORATION, priority 2015, dated 2018)
Counter-ions that a name gives are not always drawn.

target: T1, TNIK (Homo sapiens, UniProt Q9UKE5); test: ADP-Glo Kinase Assay, inhibition activity on TNIK; assay type: biochemical; conditions: read-out: TNIK
T1 construct: purchased Promega V4158
Method: The inhibition activities on TNIK, IKKε and TBK1 were measured by a luminometer, TNIK/IKKε/TBK1 Kinase Enzyme System (Promega, Ca# V4158; Invitrogen, PR8031B, Promega, Ca# V3991) and ADP-Glo Kinase Assay using ADP-Glo™ Kinase Analysis Kit (Promega, Ca# V9101) and a kinase reaction buffer [40 mM Tris(pH 7.5), 20 mM MgCl2, 0.1 mg/mL BSA] in accordance with the manufacturer's protocol.

T1 sequence (Q9UKE5 1-367 limits assumed): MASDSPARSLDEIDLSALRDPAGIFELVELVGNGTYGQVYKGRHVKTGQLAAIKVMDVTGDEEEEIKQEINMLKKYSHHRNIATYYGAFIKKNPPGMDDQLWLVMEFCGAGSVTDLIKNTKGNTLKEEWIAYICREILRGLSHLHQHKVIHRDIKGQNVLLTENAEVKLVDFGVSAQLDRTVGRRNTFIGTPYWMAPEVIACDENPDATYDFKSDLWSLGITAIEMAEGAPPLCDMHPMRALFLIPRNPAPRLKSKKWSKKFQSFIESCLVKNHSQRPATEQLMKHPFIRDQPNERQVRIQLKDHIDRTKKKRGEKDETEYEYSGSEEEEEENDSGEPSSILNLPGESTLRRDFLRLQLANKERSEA

| SMILES | IC50 |
| --- | --- |
| O=C(Nc1ccc(Nc2cc(C(F)(F)F)cc(C(F)(F)F)c2)c2c1C(=O)NC2)c1ccc(NCCN2CCCC2)cc1 [Example 465, N-(7-((3,5-bis(trifluoromethyl)phenyl)amino)-3-oxoisoindolin-4-yl)-4-((2-(pyrrolidin-1-yl)ethyl)amino)benzamide] | > 20000 nM |
| O=C(Nc1ccc(Nc2cc(C(F)(F)F)cc(C(F)(F)F)c2)c2c1C(=O)NC2)c1ccc(NCCCN2CCCC2)cc1 [Example 466, N-(7-((3,5-bis(trifluoromethyl)phenyl)amino)-3-oxoisoindolin-4-yl)-4-((3-(pyrrolidin-1-yl)propyl)amino)benzamide] | 14000 nM |
| O=C(Nc1ccc(Nc2cc(C(F)(F)F)cc(C(F)(F)F)c2)c2c1C(=O)NC2)c1ccc(NCCN2CCCCC2)cc1 [Example 467, N-(7-((3,5-bis(trifluoromethyl)phenyl)amino)-3-oxoisoindolin-4-yl)-4-((2-(piperidin-1-yl)ethyl)amino)benzamide] | > 20000 nM |
| O=C(Nc1ccc(Nc2cc(C(F)(F)F)cc(C(F)(F)F)c2)c2c1C(=O)NC2)c1ccc(NCCCN2CCCCC2)cc1 [Example 468, N-(7-((3,5-bis(trifluoromethyl)phenyl)amino)-3-oxoisoindolin-4-yl)-4-((3-(piperidin-1-yl)propyl)amino)benzamide] | 17100 nM |
| Cc1cccc(Nc2ccc(NC(=O)c3ccc(NCCCN4CCCC4)cc3)c3c2CNC3=O)c1C [Example 470, N-(7-((2,3-dimethylphenyl)amino)-3-oxoisoindolin-4-yl)-4-((3-(pyrrolidin-1-yl)propyl)amino)benzamide] | 470 nM |
| Cc1cccc(Nc2ccc(NC(=O)c3ccc(NCCN4CCCCC4)cc3)c3c2CNC3=O)c1C [Example 471, N-(7-((2,3-dimethylphenyl)amino)-3-oxoisoindolin-4-yl)-4-((2-(piperidin-1-yl)ethyl)amino)benzamide] | 610 nM |
| Cc1ccccc1Nc1ccc(NC(=O)c2ccc(NCCN3CCCC3)cc2)c2c1CNC2=O [Example 473, N-(3-oxo-7-(o-tolylamino)isoindolin-4-yl)-4-((2-(pyrrolidin-1-yl)ethyl)amino)benzamide] | 430 nM |
| COc1ccccc1Nc1ccc(NC(=O)c2ccc(NCCN3CCCC3)cc2)c2c1CNC2=O [Example 474, N-(7-((2-methoxyphenyl)amino)-3-oxoisoindolin-4-yl)-4-((2-(pyrrolidin-1-yl)ethyl)amino)benzamide] | 440 nM |
| COc1ccccc1Nc1ccc(NC(=O)c2ccc(NCCCN3CCCC3)cc2)c2c1CNC2=O [Example 475, N-(7-((2-methoxyphenyl)amino)-3-oxoisoindolin-4-yl)-4-((3-(pyrrolidin-1-yl)propyl)amino)benzamide] | 470 nM |
| Cc1ccccc1Nc1ccc(NC(=O)c2ccc(NCCCN3CCCC3)cc2)c2c1CNC2=O [Example 476, N-(3-oxo-7-(o-tolylamino)isoindolin-4-yl)-4-((3-(pyrrolidin-1-yl)propyl)amino)benzamide] | 500 nM |
| COc1ccccc1Nc1ccc(NC(=O)c2ccc(NCCN3CCCCC3)cc2)c2c1CNC2=O [Example 477, N-(7-((2-methoxyphenyl)amino)-3-oxoisoindolin-4-yl)-4-((2-(piperidin-1-yl)ethyl)amino)benzamide] | 420 nM |
| COc1ccccc1Nc1ccc(NC(=O)c2ccc(NCCCN3CCCCC3)cc2)c2c1CNC2=O [Example 478, N-(7-((2-methoxyphenyl)amino)-3-oxoisoindolin-4-yl)-4-((3-(piperidin-1-yl)propyl)amino)benzamide] | 490 nM |

Now from value to compound:

| IC50 | SMILES |
| --- | --- |
| 340 nM | O=C(Nc1ccc(Nc2cccc(Cl)c2)c2c1C(=O)NC2)c1ccc(NCCN2CCCCC2)cc1 [Example 456, N-(7-((3-chlorophenyl)amino)-3-oxoisoindolin-4-yl)-4-((2-(piperidin-1-yl)ethyl)amino)benzamide] |
| 150 nM | O=C(Nc1ccc(Nc2cccc(Cl)c2)c2c1C(=O)NC2)c1ccc(NCCCN2CCCC2)cc1 [Example 457, N-(7-((3-chlorophenyl)amino)-3-oxoisoindolin-4-yl)-4-((3-(pyrrolidin-1-yl)propyl)amino)benzamide] |
| 240 nM | O=C(Nc1ccc(Nc2cccc(Cl)c2)c2c1C(=O)NC2)c1ccc(NCCCN2CCCCC2)cc1 [Example 458, N-(7-((3-chlorophenyl)amino)-3-oxoisoindolin-4-yl)-4-((3-(piperidin-1-yl)propyl)amino)benzamide] |
| 210 nM | O=C(Nc1ccc(Nc2ccccc2)c2c1C(=O)NC2)c1ccc(NCCCN2CCCC2=O)cc1 [Example 459, N-(3-oxo-7-(phenylamino)isoindolin-4-yl)-4-((3-(2-oxopyrrolidin-1-yl)propyl)amino)benzamide] |
| 140 nM | CN(C)CCCNc1ccc(C(=O)Nc2ccc(Nc3ccccc3)c3c2C(=O)NC3)cc1 [Example 460, 4-((3-(Dimethylamino)propyl)amino)-N-(3-oxo-7-(phenylamino)isoindolin-4-yl)benzamide] |
| 380 nM | O=C(Nc1ccc(Nc2ccccc2)c2c1C(=O)NC2)c1ccc(NCCCN2CCOCC2)cc1 [Example 461, 4-((3-Morpholinopropyl)amino)-N-(3-oxo-7-(phenylamino)isoindolin-4-yl)benzamide] |
| 290 nM | O=C(Nc1ccc(Nc2ccccc2)c2c1C(=O)NC2)c1ccc(NCCCN2CCCC2)cc1 [Example 462, N-(3-oxo-7-(phenylamino)isoindolin-4-yl)-4-((3-(pyrrolidin-1-yl)propyl)amino)benzamide] |
| 370 nM | CN1CCN(CCCNc2ccc(C(=O)Nc3ccc(Nc4ccccc4)c4c3C(=O)NC4)cc2)CC1 [Example 463, 4-((3-(4-Methylpiperazin-1-yl)propyl)amino)-N-(3-oxo-7-(phenylamino)isoindolin-4-yl)benzamide] |
| 74 nM | O=C(Nc1ccc(Nc2ccccc2)c2c1C(=O)NC2)c1ccc(NCCCO)cc1 [Example 464, 4-((3-Hydroxypropyl)amino)-N-(3-oxo-7-(phenylamino)isoindolin-4-yl)benzamide] |
| 370 nM | Cc1cccc(Nc2ccc(NC(=O)c3ccc(NCCN4CCCC4)cc3)c3c2CNC3=O)c1C [Example 469, N-(7-((2,3-dimethylphenyl)amino)-3-oxoisoindolin-4-yl)-4-((2-(pyrrolidin-1-yl)ethyl)amino)benzamide] |
| 410 nM | Cc1cccc(Nc2ccc(NC(=O)c3ccc(NCCCN4CCCCC4)cc3)c3c2CNC3=O)c1C [Example 472, N-(7-((2,3-dimethylphenyl)amino)-3-oxoisoindolin-4-yl)-4-((3-(piperidin-1-yl)propyl)amino)benzamide] |
| 110 nM | O=C(Nc1ccc(Nc2ccccc2)c2c1C(=O)NC2)c1ccc(NCCCN2CCCCC2)cc1 [Example 479, N-(3-oxo-7-(phenylamino)isoindolin-4-yl)-4-((3-(piperidin-1-yl)propyl)amino)benzamide] |
| 220 nM | O=C(Nc1ccc(Nc2ccccc2)c2c1C(=O)NC2)c1ccc(NCCCN2CCCCC2)cc1 [Example 480, N-(3-oxo-7-(phenylamino)isoindolin-4-yl)-4-((3-(piperidin-1-yl)propyl)amino)benzamide hydrochloride] |
| 200 nM | NCCNc1ccc(C(=O)Nc2ccc(Nc3ccccc3)c3c2C(=O)NC3)cc1 [Example 481, 4-((2-Aminoethyl)amino)-N-(3-oxo-7-(phenylamino)isoindolin-4-yl)benzamide] |
